Drawing on PubChem BioAssay AID602264 (The Scripps Research Institute Molecular Screening Center, 2012), this text covers EC50 for one compound.

The experiment addresses Mu-type opioid receptor (Homo sapiens) + Delta-type opioid receptor (Homo sapiens) (UniProt P35372+P41143). Nature of the experiment: OPRM1-OPRD1 heterodimer agonist potency – cell-based, luminescence, counter-screen for MC4R biased agonist project, dose response (AID 602264). The settings on record: cell-based OPRM1-OPRD1 heterodimerization.

Each structure is given as a SMILES string. Activity calls are given as the source filed them. How the calls were made is not given here. Bounds are passed on as bounds.

Chain of Mu-type opioid receptor (Homo sapiens) + Delta-type opioid receptor (Homo sapiens) (P35372 whole entry, looked up): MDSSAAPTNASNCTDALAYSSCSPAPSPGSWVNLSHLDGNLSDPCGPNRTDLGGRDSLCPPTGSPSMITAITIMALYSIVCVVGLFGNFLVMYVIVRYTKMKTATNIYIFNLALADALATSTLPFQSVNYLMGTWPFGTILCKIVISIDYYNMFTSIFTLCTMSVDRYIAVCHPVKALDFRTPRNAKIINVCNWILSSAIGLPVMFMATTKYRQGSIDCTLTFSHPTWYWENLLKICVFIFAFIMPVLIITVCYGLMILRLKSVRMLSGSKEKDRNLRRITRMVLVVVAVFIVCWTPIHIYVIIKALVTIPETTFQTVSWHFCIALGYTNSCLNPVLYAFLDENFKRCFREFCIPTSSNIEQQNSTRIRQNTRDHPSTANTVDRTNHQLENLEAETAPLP
Chain of Mu-type opioid receptor (Homo sapiens) + Delta-type opioid receptor (Homo sapiens) (P41143 whole entry, looked up): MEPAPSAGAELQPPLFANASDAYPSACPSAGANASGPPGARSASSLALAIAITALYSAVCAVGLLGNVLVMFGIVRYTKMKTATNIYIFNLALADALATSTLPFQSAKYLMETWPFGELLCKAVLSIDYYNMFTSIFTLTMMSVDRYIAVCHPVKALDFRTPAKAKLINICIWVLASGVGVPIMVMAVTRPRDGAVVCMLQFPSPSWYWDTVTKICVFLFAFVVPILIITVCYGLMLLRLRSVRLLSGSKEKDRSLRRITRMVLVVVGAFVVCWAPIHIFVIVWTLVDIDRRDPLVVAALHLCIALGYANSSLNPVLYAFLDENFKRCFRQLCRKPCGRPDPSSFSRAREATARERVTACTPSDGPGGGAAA

In the case of `C/C(=C\c1ccco1)C1C(C#N)=C(N)Oc2n[nH]c(-c3ccc(C)cc3)c21` (stereo unspecified), the EC50 is > 64.6 µM (inactive).
